The values below come from publication PMC10663244 (Investigational New Drugs, 2023).

Read-outs that look alike come from different tables or passages of the source.

Data set [1] relates to serum phosphate. The settings on record: Western population; cited from earlier work.
The test system of data set [2] is serum phosphate. Description: Pharmacodynamics: serum phosphate level as PD marker for FGFR inhibition. Type of data set: in vivo, human (Chinese patients). The protocol:
Serum phosphate level was defined as the PD marker in the study for assessing FGFR inhibition. […] Serum phosphate levels were measured using phosphomolybdate UV method (measuring range: 0.31‑20.0 mg/dL) by the central laboratory (Q2 Solutions [Beijing] Co., Ltd.).
Serum samples were analyzed for the concentration of serum phosphate using phosphomolybdate UV method by the central laboratory (Q2 Solutions (Beijing) Co., Ltd.). The concentration of phosphomolybdate formed is directly proportional to the inorganic phosphate concentration and is measured photometrically. Phosphorus quantification was determined in human plasma on Roche/Hitachi cobas c systems. Measuring range was 0.10‑6.46 mmol/L (0.31‑20.0 mg/dL). Reagents: Phosphate (Inorganic) ver.2 (250 tests) Catalouge:03183793 122.

Data set [3] relates to FGF/FGFR1-3 altered, advanced solid tumors. In words: Antitumor activity per RECIST v1.1 by investigator, phase I. Type of data set: in vivo, human (Chinese patients). The settings on record: 12 patients. The protocol:
Tumor response was assessed by investigator according to Response Evaluation Criteria in Solid Tumors (RECIST) v1.1 every 9 weeks after first dosing.
(§1) Tumor was assessed per RECIST v1.1 by investigator at baseline, and every 9 weeks after first dosing. […] Adverse events (AEs) were graded per CTCAE v5.0. […] Sponsor-defined clinically notable TEAEs included hyperphosphatemia, hypophosphatemia, nail toxicities, and serous retinal detachment.
(§2) All statistical analyses were conducted using SAS version 9.4 (or higher).
The Clopper-Pearson method was used to calculate the 95% confidence interval (CI) of ORR and DCR. The Kaplan–Meier method and the Brookmeyer and Crowley method were used to estimate PFS.

A short description of data set [4]: Safety: treatment-emergent adverse events (CTCAE v5.0), phase I. Type of data set: in vivo. The protocol: as §1, §2
The conditions of data set [5]: cited from earlier work.
The subject of a further data set is advanced malignancies. To be noted: Japanese population, cited from earlier work.
The conditions of data set [6]: any grade, Japanese patients; cited from earlier work.
The conditions of data set [7]: Western population, steady state, cited from earlier work.
The subject of data set [8] is FGF/FGFR alterations and advanced malignancies. To be noted: Western patients, cited from earlier work.
Data set [9] is described as follows: Plasma pharmacokinetics of pemigatinib (LC–MS/MS, non-compartmental), phase I. The class given is in vivo, human (Chinese patients). The settings on record: for Tmax: read-out: tmax, median (min, max).
Data set [10] deals with FGFR2 fusion/rearrangement-positive cholangiocarcinoma (CCA). Also noted: method as in PMID 29182496. To be noted: 108 previously-treated patients; cited from earlier work.
For the next data set, the system named is UC. Also on record: method as in PMID 31340094. The settings on record: 99 patients with UC; cited from earlier work.
[11] abbreviates: 13.5 mg oral QD, C1D14 (steady state), N=12.

For `CCN1C(=O)N(c2c(F)c(OC)cc(OC)c2F)Cc2cnc3[nH]c(CN4CCOCC4)cc3c21` [pemigatinib], in the data set with serum phosphate [1], the “Serum phosphate concentration change from baseline, geomean (CV%)” value is given as 2.6 (40.4%) mg/dL. In addition, in the data set on serum phosphate [2] (days 8 and 15 of cycle 1, 13.5 mg QD, 11 patients, CV% 31.3%), the “Serum phosphate level increase, mean” value is on record as 2.25 mg/dL. Moreover, the “Serum phosphate concentration change from baseline, geomean (CV%)” value in the data set on serum phosphate [2] (days 8 and 15 of cycle 1, Chinese patients) is recorded as 2.15 (32.9%) mg/dL. The “Serum phosphate level after 1 week off” value with serum phosphate [2] (post 1 week off/intermission) is “decreased to baseline”. In addition, the “Serum phosphorus during subsequent treatment” value in the data set with serum phosphate [2] (subsequent treatment after cycle 1) is “remained below or near the baseline levels”. Also, in data set [3] (13.5 mg QD 2-weeks-on/1-week-off, confirmed), the “Objective response rate (ORR)” value is listed as 16.7%. Moreover, the “Best overall confirmed response: Partial response” value in data set [3] is given as 2 (16.7%) n (%). For the same molecule, in data set [3] (95% CI […] - 48.4%), the Objective response rate was 2 (16.7%) n (%). For the same molecule, the “TEAEs leading to treatment interruption/discontinuation or death” value in [4] (12 patients) was “No TEAEs led to treatment interruption/discontinuation or death”. For the same molecule, in [4] (human, in vivo), the Anaemia is 6 (50.0) n (%), the “Blood alkaline phosphatase increased” value was 0 n (%), the Blood bilirubin increased is reported as 0 n (%) and the “Blood lactate dehydrogenase increased” value is on record as 0 n (%). Besides, in data set [4] (human, in vivo), the Decreased appetite is recorded as 6 (50.0) n (%), the Diarrhoea is recorded as 0 n (%), the Gamma-glutamyltransferase increased was 1 (8.3) n (%) and the Hypoalbuminaemia is given as 6 (50.0) n (%). In data set [4] (human, in vivo), the Hypochloraemia was 0 n (%), the Incidence of anaemia came to 50.0%, the Incidence of arthralgia stood at 8.3% and the “Incidence of decreased appetite” value amounted to 50.0%. For the same molecule, in data set [4] (human, in vivo), the “Incidence of gamma-glutamyltransferase increased” value is given as 8.3%, the Incidence of hypercalcaemia was 8.3%, the Incidence of hypoalbuminaemia was found to be 50.0% and the “Incidence of hypophosphatemia (clinically-notable TEAE)” value amounted to 25.0%. Moreover, in data set [4] (human, in vivo), the “Incidence of lipase increased” value was found to be 8.3%, the “Incidence of nail discolouration (clinically-notable TEAE)” value is 8.3%, the “Incidence of nail disorder (clinically-notable TEAE)” value was found to be 16.7% and the “Incidence of nail toxicity (clinically-notable TEAE)” value is recorded as 16.7%. Also, in data set [4] (human, in vivo), the Incidence of proteinuria worked out at 8.3%, the “Low density lipoprotein increased” value is given as 0 n (%), the “Patients with dose reduction due to proteinuria” value worked out at 8.3% and the “Patients with grade ≥ 3 TEAEs” value is recorded as 25.0%. Further, in [4] (human, in vivo), the “Patients with grade ≥ 3 treatment-related AEs” value is 16.7%, the Proteinuria is recorded as 1 (8.3) n (%) and the Weight decreased was 0 n (%). Moreover, in [4] (in vivo), the “Ocular toxicity (vision blurred of grade 1)” value is given as “only one patient experienced ocular toxicity” and the “Serious TEAEs” value is “No serious TEAEs occurred”. The Incidence of hyperphosphataemia in data set [5] (any grade, Western patients) was 75%. The Incidence of hyperphosphataemia in [5] (grade ≥ 3, Western patients) is on record as 2.3%. Further, in the data set on advanced malignancies (Fight-102, 1/25), the Objective response rate is given as 4.0%. For the same molecule, in the data set on advanced malignancies (Fight-102), the Disease control rate is listed as 40.0%. For the same molecule, the Incidence of hyperphosphataemia in [6] is recorded as 76%. Besides, in [7], the “AUCss,0-24, geomean” value is 2.62 µM·h. The highest concentration (Cmax) in data set [7] (read-out: Cmax,ss, geomean) was 236 nM. In addition, in data set [8] (Fight-101, 3/13), the “ORR for patients with FGFR mutations” value is given as 23.1%. Moreover, the “ORR for patients with FGFR fusions/rearrangements” value in [8] (Fight-101, 5/20) is given as 25.0%. For the same molecule, in [8] (Fight-101), the Disease control rate is 40.6% and the Objective response rate is listed as 9.4%. Also, in data set [9] (setting [11]), the “CLss/F, geometric mean” value was 11.8 L/h; the “CLss/F, mean ± STD” value worked out at 13.3 ± 7.2 L/h; the “Cmin,ss, geometric mean” value worked out at 49.8 nM; the “tmax, median (min, max)” value is 1.99 (0.5, 23.2) h. For the same molecule, the “AUCss,0-24, geomean” value in [9] (Chinese patients, steady state, 13.5 mg QD) came to 2.6369 µM·h. In addition, in [9] (Chinese patients, steady state, 13.5 mg QD, read-out: Cmax,ss, geomean), the peak concentration (Cmax) came out at 215 nM. Moreover, the AUC(0-t) in data set [9] (human, plasma, po, 13.5 mg, 13.5 mg oral QD, C1D1, N=12, read-out: AUC0-24, geometric mean (converted)) is 2.13 µM·h. Moreover, in data set [9] (human, plasma, po, 13.5 mg, 13.5 mg oral QD, C1D1, N=12, read-out: AUC0-24, mean ± STD), the AUC(0-t) was 2.24 ± 0.861 µM·h. Also, the peak concentration (Cmax) in data set [9] (human, plasma, po, 13.5 mg, 13.5 mg oral QD, C1D1, N=12, read-out: Cmax, geometric mean (converted)) was 154 nM. Also, the Cmax in [9] (human, plasma, po, 13.5 mg, 13.5 mg oral QD, C1D1, N=12, read-out: Cmax, mean ± STD) was found to be 190 ± 108 nM. In addition, the time to peak (Tmax) in data set [9] (human, plasma, po, 13.5 mg, 13.5 mg oral QD, C1D1, N=12) was around 1.52 h. In addition, in data set [9] (human, plasma, po, 13.5 mg, 13.5 mg oral QD, C1D14 (steady state), N=12, read-out: AUCss,0-24, geometric mean (converted)), the AUC is 2.64 µM·h. Also, the AUC in data set [9] (human, plasma, po, 13.5 mg, 13.5 mg oral QD, C1D14 (steady state), N=12, read-out: AUCss,0-24, mean ± STD) is 2.94 ± 1.44 µM·h. Further, in data set [9] (human, plasma, po, 13.5 mg, 13.5 mg oral QD, C1D14 (steady state), N=12, read-out: Cmax,ss, geometric mean (converted)), the Cmax is 215 nM. Further, the Cmax in [9] (human, plasma, po, 13.5 mg, 13.5 mg oral QD, C1D14 (steady state), N=12, read-out: Cmax,ss, mean ± STD) came to 246 ± 115 nM. Besides, in data set [9] (human, plasma, po, 13.5 mg, 13.5 mg oral QD, C1D14 (steady state), N=12, read-out: Vz/F, geometric mean (converted)), the Vd/F was 170 L. Besides, the Vd/F in data set [9] (human, plasma, po, 13.5 mg, 13.5 mg oral QD, C1D14 (steady state), N=12, read-out: Vz/F, mean ± STD) worked out at 179 ± 60.4 L. In [9] (human, plasma, po, 13.5 mg, 13.5 mg oral QD, C1D14 (steady state), N=12), the Tmax is around 1.99 h. Also, the half-life in data set [9] (human, plasma, po, 13.5 mg, 13.5 mg oral QD, C1D14 (steady state), N=12, read-out: t½ (elimination half-life), geometric mean (converted)) is 11.3 h. For the same molecule, in data set [9] (human, plasma, po, 13.5 mg, 13.5 mg oral QD, C1D14 (steady state), N=12, read-out: t½, mean ± STD (converted)), the half-life is 11.8 ± 4 h.
Turning to `CCN1CCN(c2ccc(Nc3cc(N(C)C(=O)Nc4c(Cl)c(OC)cc(OC)c4Cl)ncn3)cc2)CC1` [Infigratinib], in [10], the ORR is reported as 23.1%.
In the case of `COc1cc(OC)cc(N(CCNC(C)C)c2ccc3ncc(-c4cnn(C)c4)nc3c2)c1` [erdafitinib], the “Overall objective response rate (ORR)” value in the data set with UC is given as 40%.
